Starred links: 1 amine or outer side, 2 acyl side, 3 side chain; linkers in the order of their positions; H or OH if unused. Positions of bridges follow the written chain, without caps; N, C: chain ends. Non-standard residues stand in square brackets, D forms with d. Primed or numbered codes have the meaning given here. Chains are numbered I, II in the order given. No end group written: not given here. *: point of attachment. X1 = O=C(CCOCCOCCOCCN(CCOCCOCCOCCn1cc(CCC(=O)[*:2])nn1)CCOCCOCCOCCn1cc(CCC(=O)[*:3])nn1)[*:1]; X3 = O=C(CCc1cn(CCOCCOCCOCCN(CCOCCOCCOCCC(=O)[*:3])CCOCCOCCOCCn2cc(CCC(=O)[*:2])nn2)nn1)[*:1]; PYA″ = 4-pentynoic acid, acylating the D-Lys side chain, alkyne clicked to the linker azide; X2 = O=C(CCSCCC(=O)[*:1])N1CN(C(=O)CC[*:2])CN(C(=O)CC[*:3])C1; TATA = O=C(CC[*:1])N1CN(C(=O)CC[*:2])CN(C(=O)CC[*:3])C1; Ala(4-thiazolyl) = N[C@@H](Cc1cscn1)C(=O)O; Dip = N[C@H](C(=O)O)C(c1ccccc1)c1ccccc1; 1Nal = N[C@@H](Cc1cccc2ccccc12)C(=O)O; Hyp = O=C(O)[C@@H]1C[C@@H](O)CN1; hArg = N=C(N)NCCCC[C@H](N)C(=O)O; tBuAla = CC(C)(C)C[C@H](N)C(=O)O; Cba = N[C@@H](CC1CCC1)C(=O)O; NMeA = CN[C@@H](C)C(=O)O; Nle = CCCC[C@H](N)C(=O)O; Pent4ynoyl = C#CCCC(=O)*; Mpa = O=C(O)CCS
Target: CD137 (Homo sapiens, UniProt Q07011)
Assay: CD137 reporter assay (Promega, Jurkat cells) in co-culture with EphA2-expressing tumor cells (A549, PC3, HT29)
Format: cell-based
Design: host or cells: Jurkat reporter cells
Conditions: for fold induction / Emax (fold induction over background): CD137 reporter coculture assay with PC3 tumor cells; for fold induction: read-out: Emax (fold induction over background); for EC50: EC50, CD137 reporter coculture assay with PC3 tumor cells; for Fold Improvement over BCY9173, EC50 (nM) / Fold Improvement over Emax: co-culture with PC3; for Fold Improvement over Emax: versus BCY9173
Method: Culture medium, referred to as R1 media, is prepared by adding 1% FBS to RPMI-1640 (component of Promega kit CS196005). Serial dilutions of test articles in R1 are prepared in a sterile 96 well-plate. Add 25 μL per well of test articles or R1 (as a background control) to designated wells in a white cell culture plate. Tumor cells* are harvested and resuspended at a concentration of 400,000 cells/mL in R1 media. Twenty five (25) μL/well of tumor cells are added to the white cell culture plate. Jurkat cells (Promega kit CS196005, 0.5 mL) are thawed in the water bath and then added to 5 ml pre-warmed R1 media. Twenty five (25) μL/well of Jurkat cells are then added to the white cell culture plate. Incubate the cells and test articles for 6 h at 37° C., 5% CO2. At the end of 6 h, add 75 μL/well Bio-Glo™ reagent (Promega) and incubate for 10 min before reading luminescence in a plate reader (Clariostar, BMG). The fold change relative to cells alone (Jurkat cells+Cell line used in co-culture) is calculated and plotted in GraphPad Prism as log(agonist) vs response to determine EC50 (nM) and Fold Induction over background (Max).
The tumor cell types used in co-culture for EphA2 are A549, PC3 and HT29. The tumor cell type used in co-culture for PD-L1 is RKO.

CD137, sequence (Q07011 24-255): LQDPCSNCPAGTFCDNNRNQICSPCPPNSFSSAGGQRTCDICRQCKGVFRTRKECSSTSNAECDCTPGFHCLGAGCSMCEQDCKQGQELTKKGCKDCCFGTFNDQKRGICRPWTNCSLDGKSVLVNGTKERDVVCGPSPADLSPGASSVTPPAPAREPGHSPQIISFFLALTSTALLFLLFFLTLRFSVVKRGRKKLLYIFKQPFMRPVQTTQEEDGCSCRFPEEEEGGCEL

Fold Improvement over BCY9173, EC50 (nM) | Fold Improvement over Emax | Substance | fold induction | EC50 | Emax (fold induction over background)
– | – | I: Ac-A[hArg]DC[Hyp]LVNPLCLHP[dD]W[hArg]CK-NH2 / II: Ac-C[tBuAla]PE[dK]PYCFADPY[Nle]CA-NH2 / III: Ac-C[tBuAla]PE[dK]PYCFADPY[Nle]CA-NH2 (linker I:4-I:11-I:18, II:1-II:8-II:15, III:1-III:8-III:15 via TATA; linker I:19-II:5-III:5 via X1) [BCY12973] | 48.6 | 0.16 nM | –
– | – | I: A[hArg]DC[Hyp]LVNPLCLEP[dD]WTC-NH2 / II: [Mpa][tBuAla]EE[dK]PYCFADPY[Nle]C-NH2 / III: [tBuAla]EE[dK]PYCFADPY[Nle]C-NH2 (linker I:4-I:11-I:18, II:1-II:8-II:15 via TATA; linker I:N-II:5-III:4 via X1; linker III:N-III:7-III:14 via X2) [BCY13140] | – | 0.12 nM | 46.70
– | – | I: A[hArg]DC[Hyp]LVNPLCL[Dip]P[dD]W[hArg]C-NH2 / II: Ac-C[tBuAla]PE[dK]PYCFADPY[Nle]CA-NH2 / III: Ac-C[tBuAla]PE[dK]PYCFADPY[Nle]CA-NH2 (linker I:4-I:11-I:18, II:1-II:8-II:15, III:1-III:8-III:15 via TATA; linker I:N-II:5-III:5 via X1) [BCY13054] | – | 0.07 nM | 36.53
– | – | I: C[Hyp][Cba]VNPLCL[Dip]P[dD]WTC[dA]-NH2 / II: Ac-C[tBuAla]PE[dK]PYCFADPY[Nle]CA-NH2 / III: Ac-C[tBuAla]PE[dK]PYCFADPY[Nle]CA-NH2 (linker I:1-I:8-I:15, II:1-II:8-II:15, III:1-III:8-III:15 via TATA; linker I:N-II:5-III:5 via X1) [BCY13053] | – | 0.1 nM | 40.33
– | – | I: C[Hyp][Cba]VNPLCL[Dip]P[dD]WTC[dA]-NH2 / II: [Mpa][tBuAla]PE[dK]PYCFADPY[Nle]C-NH2 / III: [tBuAla]PE[dK]PYCFADPY[Nle]C-NH2 (linker I:1-I:8-I:15, II:1-II:8-II:15 via TATA; linker I:N-II:5-III:4 via X1; linker III:N-III:7-III:14 via X2) [BCY13341] | – | 0.19 nM | 49.15
– | – | I: [NMeA][hArg]DC[Hyp]LVNPLCLHP[dD]W[hArg]C-NH2 / II: Ac-C[tBuAla]PE[dK]PYCFADPY[Nle]CA-NH2 / III: Ac-C[tBuAla]PE[dK]PYCFADPY[Nle]CA-NH2 (linker I:4-I:11-I:18, II:1-II:8-II:15, III:1-III:8-III:15 via TATA; linker I:N-II:5-III:5 via X1) [BCY13275] | – | 0.08 nM | 47.50
– | – | I: Ac-C[tBuAla]PE[dK]PYCFADPY[Nle]CA-NH2 / II: Ac-C[tBuAla]PE[dK]PYCFADPY[Nle]CA-NH2 / III: C[Hyp]LVNPLCL[1Nal]P[dD]WTC-NH2 (linker I:1-I:8-I:15, II:1-II:8-II:15, III:1-III:8-III:15 via TATA; linker I:5-II:5-III:N via X3) [BCY13273] | – | – | 51.27
7.21 fold | 1.62 fold | BCY14334: EphA2:CD137 1:2; BCY14313 + 2x BCY8928; linker N-(acid-PEG3)-N-bis(PEG3-azide) (peptide 1 A[hArg]DC[Hyp]LVNPLCLKP[dD]W[hArg]C; peptide 2 Ac-C[tBuAla]PE[dK](Pent4ynoyl)PYCFADPY[Nle]CA; linker I:4-I:11-I:18, II:1-II:8-II:15 via TATA (inferred); not fully specified (some residues, N-terminus); also: 1:2 complex: chain 1 N-terminus joined to dLys(PYA)5 of two chain 2 copies via N-(acid-PEG3)-N-bis(PEG3-azide) linker) | – | – | –
3.15 fold | 1.88 fold | BCY14051: EphA2:CD137 1:2; BCY13919 + 2x BCY8928; linker N-(acid-PEG3)-N-bis(PEG3-azide) (peptide 1 A[hArg]DC[Hyp]LVNPLCL[Ala(4-thiazolyl)]P[dD]W[hArg]C; peptide 2 Ac-C[tBuAla]PE[dK](PYA″)PYCFADPY[Nle]CA; linker I:4-I:11-I:18, II:1-II:8-II:15 via TATA (inferred); not fully specified (N-terminus, bridges); also: 2x chain 2 (2x BCY8928) on linker) | – | – | –
– | – | I: [NMeA][hArg]DC[Hyp]LVNPLCLEP[dD]WTC-NH2 / II: Ac-C[tBuAla]PE[dK]PYCFADPY[Nle]CA-NH2 / III: Ac-C[tBuAla]PE[dK]PYCFADPY[Nle]CA-NH2 (linker I:4-I:11-I:18, II:1-II:8-II:15, III:1-III:8-III:15 via TATA; linker I:N-II:5-III:5 via X1) [BCY13276] | 50.5 | 0.1 nM | –
– | – | I: A[hArg]EC[Hyp]LVNPLCLHP[dE]W[hArg]C-NH2 / II: Ac-C[tBuAla]PE[dK]PYCFADPY[Nle]CA-NH2 / III: Ac-C[tBuAla]PE[dK]PYCFADPY[Nle]CA-NH2 (linker I:4-I:11-I:18, II:1-II:8-II:15, III:1-III:8-III:15 via TATA; linker I:N-II:5-III:5 via X1) [BCY12978] | 78.1 | – | –
– | – | I: A[hArg]DC[Hyp]LVNPLCLEP[dD]WTC[dA]-NH2 / II: Ac-C[tBuAla]PE[dK]PYCFADPY[Nle]CA-NH2 / III: Ac-C[tBuAla]PE[dK]PYCFADPY[Nle]CA-NH2 (linker I:4-I:11-I:18, II:1-II:8-II:15, III:1-III:8-III:15 via TATA; linker I:N-II:5-III:5 via X1) [BCY13045] | – | 0.23 nM | 49.87
– | – | I: Ac-C[Hyp]LVNPLCL[Dip]P[dD]WTC[dK]-NH2 / II: Ac-C[tBuAla]PE[dK]PYCFADPY[Nle]CA-NH2 / III: Ac-C[tBuAla]PE[dK]PYCFADPY[Nle]CA-NH2 (linker I:1-I:8-I:15, II:1-II:8-II:15, III:1-III:8-III:15 via TATA; linker I:16-II:5-III:5 via X1; C-terminus assumed) [BCY13274] | – | 0.19 nM | 47.43
– | – | I: C[Hyp]LVNPLCLEP[dD]WTC[dA]-NH2 / II: Ac-C[tBuAla]PE[dK]PYCFADPY[Nle]CA-NH2 / III: Ac-C[tBuAla]PE[dK]PYCFADPY[Nle]CA-NH2 (linker I:1-I:8-I:15, II:1-II:8-II:15, III:1-III:8-III:15 via TATA; linker I:N-II:5-III:5 via X1) [BCY13049] | – | – | 46.03
– | – | I: A[hArg]DC[Hyp]LVNPLCLHP[dD]W[hArg]C-NH2 / II: [Mpa][tBuAla]EE[dK]PYCFADPY[Nle]C-NH2 / III: [tBuAla]EE[dK]PYCFADPY[Nle]C-NH2 (linker I:4-I:11-I:18, II:1-II:8-II:15 via TATA; linker I:N-II:5-III:4 via X1; linker III:N-III:7-III:14 via X2) [BCY13139] | – | 0.16 nM | 43.75
– | – | I: [dA]EDC[Hyp]LVNPLCLEP[dD]WTC-NH2 / II: Ac-C[tBuAla]PE[dK]PYCFADPY[Nle]CA-NH2 / III: Ac-C[tBuAla]PE[dK]PYCFADPY[Nle]CA-NH2 (linker I:4-I:11-I:18, II:1-II:8-II:15, III:1-III:8-III:15 via TATA; linker I:N-II:5-III:5 via X1) [BCY13280] | 38.1 | 0.19 nM | –

From US20230129258A1, “HETEROTANDEM BICYCLIC PEPTIDE COMPLEXES” (BicycleTx Limited, priority 2019, published 2023)
